Data published in publication PMC5798851, “The structure of FIV reverse transcriptase and its implications for non-nucleoside inhibitor resistance” (PLoS Pathogens, 2018).
Read-outs that look alike come from different tables or passages of the source.

What was measured:
[1] = target: T1, HIV-1 RT (Human immunodeficiency virus type 1 group M subtype B, UniProt P03366); experiment: biochemical; assay type: binding
T1 construct: HIV-1 RT construct, containing p66 and protease coding regions in pT5M plasmid; His-tag (implied by cobalt-resin purification); made in house; host or cells: E. coli BL21(DE3)

[2] = target: T2, mutant fRT (FIVm; R133S, K134I, A137E, G138T and R141I in FIV p51) (Feline immunodeficiency virus, UniProt P16088, A293E/G294T/K290I/R289S/R297I); experiment: Microscale thermophoresis (MST) NNRTI binding affinity to p51-loop mutant FIV RT
T2 construct: The p66 subunit (residues 1–554) was cloned into pET22b; p51 subunit (residues 1–430) in pET28b (kan resistance, Novagen) with a thrombin-cleavable His-tag at the N-terminus; His-tag (thrombin-cleavable) (N, cleaved yes); made in house; host or cells: E. coli ArcticExpress
Excerpt: (§1) The two subunits of FIV RT (Petaluma) were subcloned into separate plasmids to facilitate site-specific mutagenesis. […] FIV RT mutant (FIVm) was generated by introducing the specific mutations into the p51 subunit using QuikChange Kit (Agilent Technologies Genomics). HIV-1 RT construct, containing p66 and protease coding regions in pT5M plasmid, was a generous gift of Prof. Stephen H. Hughes (National Cancer Institute- Frederick, MD, USA).
(§2) RT proteins were labeled with Monolith NT protein labeling kit BLUE-NHS (NanoTemper Technologies) and eluted in microscale thermophoresis (MST) buffer (50 mm Tris-HCl, pH 7.0, 300 mM NaCl and 0.05% Tween-20).

[3] = system: mutant fRT (FIVm; R133S, K134I, A137E, G138T and R141I in FIV p51); experiment: as above; set-up: species or system feline immunodeficiency virus (FIV); details: MST; for binding affinity to mutated fRT as compared to HIV-1 RT: FIVm versus HIV-1 RT
Excerpt: as §1, §2

[4] = target: T1, HIV-1 RT; assay type: biochemical
Protocol: (§3) DNA-dependent DNA polymerization activity of RT enzymes was assessed using a DNA primer/template prepared by annealing of 70-mer ssDNA template with a complementary 25-mer ssDNA primer labeled with 6-FAM at 5’-end (Integrated DNA Technologies).
Reactions were incubated for 30 minutes at 37°C and stopped using urea sample loading buffer and heating at 95°C for 10 minutes. Reaction products were resolved using denaturing urea polyacrylamide gel electrophoresis (S5B Fig). Percentage RT activities represent percentile of band-intensities of polymerized product divided by those of template/primer substrate.

[5] = target: T3, mutated fRT (FIVm) (Feline immunodeficiency virus, UniProt P16088, A293E/G294T/K290I/R289S/R297I); experiment: DNA-dependent DNA polymerization activity assay, mutant FIV RT; assay type: biochemical, feline immunodeficiency virus (FIV); details: 0.15 μM RT, 30 minutes at 37°C
T3 construct: The p66 subunit (residues 1–554) was cloned into pET22b; p51 subunit (residues 1–430) in pET28b (kan resistance, Novagen) with a thrombin-cleavable His-tag at the N-terminus; His-tag (thrombin-cleavable) (N, cleaved yes); made in house; host or cells: E. coli ArcticExpress
Protocol: as §3
Reaction mixtures contained 100 mM Tris-HCl pH 7.5, 75 mM KCl, 0.5 mM dNTP mixture, 60 mM MgCl2, 5 mM DTT and 0.15 μM RT, 0.5 μM DNA substrate. Reactions were incubated for 30 minutes at 37°C and stopped using urea sample loading buffer and heating at 95°C for 10 minutes. Reaction products were resolved using denaturing urea polyacrylamide gel electrophoresis (S5B Fig). Percentage RT activities represent percentile of band-intensities of polymerized product divided by those of template/primer substrate.

[6] = target: T4, FIV RT (fRT) (Feline immunodeficiency virus, UniProt P16088); experiment: Microscale thermophoresis (MST) NNRTI binding affinity to wild type FIV RT
T4 construct: The p66 subunit (residues 1–554) was cloned into pET22b; p51 subunit (residues 1–430) in pET28b (kan resistance, Novagen) with a thrombin-cleavable His-tag at the N-terminus; His-tag (thrombin-cleavable) (N, cleaved yes); made in house; host or cells: E. coli ArcticExpress
Protocol: as §2

CC(C)Nc1cccnc1N1CCN(C(=O)c2cc3cc(NS(C)(=O)=O)ccc3[nH]2)CC1 [DLV, Delavirdine]
Kd [1]: 617 ± 100 nM
Kd [2]: 227 ± 71 nM
binding affinity to mutated fRT as compared to HIV-1 RT [3]: twice the affinity
inhibition of HIV-1 RT DNA polymerization activity (in words) [4]: potently inhibiting
effect on DNA polymerization activity of the mutated fRT (in words) [5]: none of the three inhibitors EFZ, DLV or RPV reduced the activity
binding to fRT (in words) [6]: fail to bind

O=C1Nc2ccc(Cl)cc2[C@@](C#CC2CC2)(C(F)(F)F)O1 [EFZ, Efavirenz]
binding affinity to mutated fRT as compared to HIV-1 RT [3]: comparable affinities
effect on DNA polymerization activity of the mutated fRT (in words) [5]: none of the three inhibitors EFZ, DLV or RPV reduced the activity
binding to fRT (in words) [6]: fail to bind

Cc1cc(/C=C/C#N)cc(C)c1Nc1ccnc(Nc2ccc(C#N)cc2)n1 [RPV, Rilpivirine]
Kd ([1]; MST, mean ±SD, read-out: Kd, binding to HIV-1 RT): 539 ± 25 nM
Kd [2]: 368 ± 60 nM
binding affinity to mutated fRT as compared to HIV-1 RT [3]: comparable affinities
binding affinity to mutated fRT as compared to fRT ([3]; FIVm versus wild type fRT): twice the affinity
inhibition of HIV-1 RT DNA polymerization activity (in words) ([4]; 0.15 μM RT, 30 minutes at 37°C): potently inhibiting
effect on DNA polymerization activity of the mutated fRT (in words) [5]: none of the three inhibitors EFZ, DLV or RPV reduced the activity
binding to fRT (in words) [6]: able to bind to fRT with comparable affinity to HIV-1 RT
Kd ([6]; mean ±SD): 796 ± 76 nM
